Row | Structure (SMILES) | melting point
1 | CC(C)c1cccc(C(C)C)c1NC(=O)NCC1(S(=O)(=O)c2ccccc2)CCCC1 | 124 °C
2 | COc1cc(Br)c(C(=O)c2ccccc2)cc1OC | 71 to 72 °C
3 | CN(CCOc1ccc(C=CC=O)cc1F)c1ccccn1 | 93 to 94 °C
4 | CON=C1[C@@H](c2cc(OC)c(OC)c(OC)c2)CC[C@@H]1c1cc(OC)c(OC)c(OC)c1 (relative stereo) | 61 to 63 °C
5 | COC(=O)C(C)Oc1ccc(NC(=O)CCCCCO)cc1 (centres undefined) | 62 to 64.5 °C
6 | CNC(=O)C(NC(=O)C(CC(C)C)C(CC(=O)OC)SC(C)=O)C(C)OCc1ccccc1 (centres undefined) | 105 to 106 °C
7 | COC(=O)NCC1CN(c2ccc(C3C=CS(=O)(=O)CC3)cc2)C(=O)O1 (centres undefined) | 196 to 197 °C
8 | O=[N+]([O-])c1ccc(CO)c(CCO)c1 | 79 to 81 °C
9 | CCOC(=O)Oc1ccc(C=CC(=O)NC2CCCNC(=O)C2)cc1 (centres undefined) | 209 to 210 °C
10 | O=C(NC1CCCCC1)OC1CCCCC1 | 77 to 78 °C
11 | OC(Cc1ccccc1)(Cn1cncn1)c1ccccc1 (centres undefined) | 134 °C
12 | O=C(C=Cc1cc(OC(=O)c2ccccc2)c(OC(=O)c2ccccc2)c([N+](=O)[O-])c1)c1ccccc1 | 206 to 210 °C
13 | CSCCC(NC(=O)Nc1cccc(C)c1)C(=O)O (racemic) | 143 °C
14 | Nc1cc(F)c(F)cc1C(=O)c1ccccc1 | 100 to 101 °C
15 | O=C1c2ccccc2-c2c1c1ccccc1c(=O)n2CCCCNS(=O)(=O)c1ccc(Br)cc1 | 176 to 177 °C
16 | O=C(O)c1ccc(CCCC2SCC(=O)N2C/C=C\C2(O)CCCCC2)cc1 (centres undefined) | 118 to 120 °C
17 | CC(C)(C)OC(=O)NC(C(=O)OCC(=O)c1ccccc1)c1ccc(OCC(=O)c2ccccc2)cc1 (centres undefined) | 125 to 126 °C
18 | CCOc1cc2c(cc1OC(C)=O)OCS2 | 131 °C
19 | CC(=NOCCOc1ccc(CC2SC(=O)NC2=O)cc1)c1ccc(-c2ccccc2)cc1 (centres undefined) | 164 to 166 °C
20 | O=C(O)C(=O)c1ccc(OCC(=O)N2CCC(c3ccccc3)CC2)cc1 | 209 to 210 °C
21 | Cc1cccc(C(=O)NC(CC(C)C)C(=O)O)c1SSc1c(C)cccc1C(=O)NC(CC(C)C)C(=O)O (centres undefined) | 210 to 211 °C
22 | COC(=O)Cc1ccc(-c2ccc(O)cc2)c(F)c1 | 115 to 118 °C

Continued, values first:

Row | melting point | Structure (SMILES)
23 | 176 to 184 °C | CN1C(=O)N(c2c(Cl)cccc2Cl)Cc2cnc(N)nc21
24 | 201 to 202 °C | CC(=O)NCC1CN(c2ccc(N3CCN(c4nc5cccc(F)c5o4)CC3)c(F)c2)C(=O)O1 (centres undefined)
25 | 95 to 98 °C | Clc1cc(Cl)nc(N2CCCC2)n1
26 | 229 to 230 °C | CCOC(=O)c1cn(-c2c(O)cccc2O)cn1
27 | 233 to 234 °C | CCCn1c(=O)c2[nH]cnc2n(-c2ccc(Cl)cc2)c1=O
28 | 160 to 161 °C | O=C1CSc2cccc(Cl)c2N1
29 | 126 to 127 °C | C=C1N(C)C(=O)OC12CCN(CC=C(c1ccccc1)c1ccccc1)CC2
30 | 163 to 165 °C | COC(=O)C(C)NC(=O)Cc1cc(C)c(C(=O)c2ccc(Cl)cc2)n1C (centres undefined)
31 | 103 to 104 °C | CC(O)(c1ccccc1)c1cc(Oc2ccc(Cl)cc2)ccc1O (centres undefined)
32 | 226 to 227 °C | Cc1ccc(NC(=O)c2ccc(CN3CCN(C)CC3)c(C(F)(F)F)c2)cc1Nc1nc(-c2ccncc2)cs1
33 | 186 to 189 °C | Cn1c(=O)c2c(nc(N3CCC(N)C3)n2Cc2ccccc2C#N)n(C)c1=O (centres undefined)
34 | 181 to 183 °C | CC1(C2CCCC2)Cc2cc(OC3=C(O)C(=O)NC3=O)c(Cl)c(Cl)c2C1=O (centres undefined)
35 | 190 to 192 °C | O=C1C(=O)c2ccccc2C2=C1SCC1(CCN(Cc3ccc(-c4cn[nH]c4)cc3)CC1)O2
36 | 150 °C | COc1cc2c(cc1OC)CN(CCc1ccc(N)cc1)C2
37 | 137 to 138 °C | Cc1nc(N)c2nc(C)n(CCOCc3ccccc3)c2c1C
38 | 196 to 198 °C | COc1ccc(-c2cc3nc(N4CCC4)c4ccccc4c3nn2)cc1
39 | 282 to 283 °C | Cc1cccc2nc(NC(=O)c3ccc(C(C)(C)C(=O)O)cc3)cn12
